Columns and labels:
Assay type in all cases: functional
Conditions in all cases: time 18-20 hrs
Escherichia coli [1] = assay: Antibacterial activity against Escherichia coli 14-4 assessed as inhibition of bacterial growth measured after 18 to 20 hrs by broth microdilution method
Pseudomonas aeruginosa [2] = assay: Antibacterial activity against Pseudomonas aeruginosa 17-1 assessed as inhibition of bacterial growth measured after 18 to 20 hrs by broth microdilution method
Klebsiella pneumoniae [3] = assay: Antibacterial activity against Klebsiella pneumoniae 15-1 assessed as inhibition of bacterial growth measured after 18 to 20 hrs by broth microdilution method
Klebsiella pneumoniae [4] = assay: Antibacterial activity against Klebsiella pneumoniae 15-4 assessed as inhibition of bacterial growth measured after 18 to 20 hrs by broth microdilution method
Klebsiella pneumoniae [5] = assay: Antibacterial activity against Klebsiella pneumoniae 15-5 assessed as inhibition of bacterial growth measured after 18 to 20 hrs by broth microdilution method
Escherichia coli [6] = assay: Antibacterial activity against Escherichia coli ATCC 35218 assessed as inhibition of bacterial growth measured after 18 to 20 hrs by broth microdilution method
Escherichia coli [7] = assay: Antibacterial activity against Escherichia coli 14-2 assessed as inhibition of bacterial growth measured after 18 to 20 hrs by broth microdilution method
Pseudomonas aeruginosa [8] = assay: Antibacterial activity against Pseudomonas aeruginosa 19-5 assessed as inhibition of bacterial growth measured after 18 to 20 hrs by broth microdilution method
Acinetobacter baumannii [9] = assay: Antibacterial activity against Acinetobacter baumannii 17-8 assessed as inhibition of bacterial growth measured after 18 to 20 hrs by broth microdilution method
Acinetobacter baumannii [10] = assay: Antibacterial activity against Acinetobacter baumannii 17-2 assessed as inhibition of bacterial growth measured after 18 to 20 hrs by broth microdilution method

In the case of Cc1nc(-c2ccc(C(C)(C)C)cc2)ncc1C(=O)N[C@@H](CCN)C(=O)N(C)[C@H]1Cc2ccc(OCCN)c(c2)-c2cc(ccc2OCCN)C[C@@H](C(=O)NCC#N)NC(=O)[C@H](C)NC1=O.Cl.Cl.Cl.Cl, the MIC (Escherichia coli [1]) is reported as 64 µg/mL, the MIC (Pseudomonas aeruginosa [2]) is reported as > 64 µg/mL and the MIC (Klebsiella pneumoniae [3]) is reported as > 64 µg/mL. For the same molecule, the MIC (Klebsiella pneumoniae [4]) was > 64 µg/mL, the MIC (Klebsiella pneumoniae [5]) was > 64 µg/mL and the MIC (Escherichia coli [6]) was 61 µg/mL. The MIC (Escherichia coli [7]) was 64 µg/mL, the MIC (Pseudomonas aeruginosa [8]) was > 64 µg/mL and the MIC (Acinetobacter baumannii [9]) was > 64 µg/mL. For the same molecule, the MIC (Acinetobacter baumannii [10]) was > 64 µg/mL.
In the case of CSSC(C)(C)c1ccc(-c2ncc(C(=O)N[C@@H](CCN)C(=O)N(C)[C@@H]3C(=O)N[C@@H](C)C(=O)N[C@H](C(=O)O)Cc4ccc(OCCN)c(c4)-c4cc3ccc4OCCN)c(C)n2)cc1.O=C(O)C(F)(F)F.O=C(O)C(F)(F)F.O=C(O)C(F)(F)F.O=C(O)C(F)(F)F, the MIC (Escherichia coli [1]) is reported as 0.06 µg/mL, the MIC (Pseudomonas aeruginosa [2]) is reported as > 64 µg/mL and the MIC (Klebsiella pneumoniae [3]) is reported as ≤ 0.03 µg/mL. The MIC (Klebsiella pneumoniae [4]) was 0.25 µg/mL, the MIC (Klebsiella pneumoniae [5]) was ≤ 0.03 µg/mL and the MIC (Escherichia coli [6]) was ≤ 0.03 µg/mL. For the same molecule, the MIC (Escherichia coli [7]) was ≤ 0.03 µg/mL, the MIC (Pseudomonas aeruginosa [8]) was > 64 µg/mL and the MIC (Acinetobacter baumannii [9]) was 2 µg/mL. For the same molecule, the MIC (Acinetobacter baumannii [10]) was 4 µg/mL.
With Cc1nc(-c2ccc(C(C)(C)C)cc2)ncc1C(=O)N[C@@H](CCN)C(=O)N(C)[C@@H]1C(=O)N[C@@H](C)C(=O)N[C@H](C(=O)OCC#N)Cc2ccc(OCCN)c(c2)-c2cc1ccc2OCCN.O=C(O)C(F)(F)F.O=C(O)C(F)(F)F.O=C(O)C(F)(F)F.O=C(O)C(F)(F)F the MIC (Escherichia coli [1]) was 0.25 µg/mL, the MIC (Pseudomonas aeruginosa [2]) was > 64 µg/mL and the MIC (Klebsiella pneumoniae [3]) was 0.125 µg/mL. It also gave an MIC (Klebsiella pneumoniae [4]) of 0.25 µg/mL, an MIC (Klebsiella pneumoniae [5]) of 0.25 µg/mL and an MIC (Escherichia coli [6]) of 0.06 µg/mL. For the same molecule, the MIC (Escherichia coli [7]) was 0.125 µg/mL, the MIC (Pseudomonas aeruginosa [8]) was > 64 µg/mL and the MIC (Acinetobacter baumannii [9]) was 4 µg/mL. The MIC (Acinetobacter baumannii [10]) was 8 µg/mL.
For CCCCCCCSSCc1ccc(-c2ncc(C(=O)N[C@@H](CCN)C(=O)N(C)[C@@H]3C(=O)N[C@@H](C)C(=O)N[C@H](C(=O)NCC#N)Cc4ccc(OCCN)c(c4)-c4cc3ccc4OCCN)c(C)n2)cc1.O=C(O)C(F)(F)F.O=C(O)C(F)(F)F.O=C(O)C(F)(F)F.O=C(O)C(F)(F)F, the MIC (Escherichia coli [1]) was 1 µg/mL, the MIC (Pseudomonas aeruginosa [2]) was 4 µg/mL and the MIC (Klebsiella pneumoniae [3]) was 2 µg/mL. It also gave an MIC (Klebsiella pneumoniae [4]) of 2 µg/mL, an MIC (Klebsiella pneumoniae [5]) of 2 µg/mL and an MIC (Escherichia coli [6]) of 2 µg/mL. The MIC (Escherichia coli [7]) was 1 µg/mL, the MIC (Pseudomonas aeruginosa [8]) was 4 µg/mL and the MIC (Acinetobacter baumannii [9]) was 2 µg/mL. The MIC (Acinetobacter baumannii [10]) was 2 µg/mL.
CCCCCSSc1ccc(-c2ncc(C(=O)N[C@@H](CCN)C(=O)N(C)[C@@H]3C(=O)N[C@@H](C)C(=O)N[C@H](C(=O)NCC#N)Cc4ccc(OCCN)c(c4)-c4cc3ccc4OCCN)c(C)n2)cc1.O=C(O)C(F)(F)F.O=C(O)C(F)(F)F.O=C(O)C(F)(F)F.O=C(O)C(F)(F)F gave an MIC (Escherichia coli [1]) of 0.25 µg/mL, an MIC (Pseudomonas aeruginosa [2]) of 4 µg/mL and an MIC (Klebsiella pneumoniae [3]) of 1 µg/mL. The MIC (Klebsiella pneumoniae [4]) was 0.5 µg/mL, the MIC (Klebsiella pneumoniae [5]) was 0.5 µg/mL and the MIC (Escherichia coli [6]) was 0.5 µg/mL. The MIC (Escherichia coli [7]) was 0.25 µg/mL, the MIC (Pseudomonas aeruginosa [8]) was 4 µg/mL and the MIC (Acinetobacter baumannii [9]) was 1 µg/mL. For the same molecule, the MIC (Acinetobacter baumannii [10]) was 2 µg/mL.
With CCCCCSSCc1ccc(-c2ncc(C(=O)N[C@@H](CCN)C(=O)N(C)[C@@H]3C(=O)N[C@@H](C)C(=O)N[C@H](C(=O)NCC#N)Cc4ccc(OCCN)c(c4)-c4cc3ccc4OCCN)c(C)n2)cc1.O=C(O)C(F)(F)F.O=C(O)C(F)(F)F.O=C(O)C(F)(F)F.O=C(O)C(F)(F)F the MIC (Escherichia coli [1]) was ≤ 0.03 µg/mL, the MIC (Pseudomonas aeruginosa [2]) was 4 µg/mL and the MIC (Klebsiella pneumoniae [3]) was 0.25 µg/mL. For the same molecule, the MIC (Klebsiella pneumoniae [4]) was 0.25 µg/mL, the MIC (Klebsiella pneumoniae [5]) was 0.25 µg/mL and the MIC (Escherichia coli [6]) was ≤ 0.03 µg/mL. The MIC (Escherichia coli [7]) was 0.06 µg/mL, the MIC (Pseudomonas aeruginosa [8]) was 2 µg/mL and the MIC (Acinetobacter baumannii [9]) was 0.5 µg/mL. The MIC (Acinetobacter baumannii [10]) was 0.5 µg/mL.
C[C@@H]1NC(=O)[C@@H](N(C)C(=O)[C@H](CCN)NC(=O)c2cnc(-c3ccc(CSSC(C)(C)C)cc3)cc2Cl)c2ccc(OCCN)c(c2)-c2cc(ccc2OCCN)C[C@@H](C(=O)NCC#N)NC1=O.O=C(O)C(F)(F)F.O=C(O)C(F)(F)F.O=C(O)C(F)(F)F.O=C(O)C(F)(F)F showed an MIC (Escherichia coli [1]) of 0.125 µg/mL, an MIC (Pseudomonas aeruginosa [2]) of 8 µg/mL and an MIC (Klebsiella pneumoniae [3]) of 0.25 µg/mL. The MIC (Klebsiella pneumoniae [4]) was 0.5 µg/mL, the MIC (Klebsiella pneumoniae [5]) was 0.125 µg/mL and the MIC (Escherichia coli [6]) was ≤ 0.03 µg/mL. For the same molecule, the MIC (Escherichia coli [7]) was 0.25 µg/mL, the MIC (Pseudomonas aeruginosa [8]) was 8 µg/mL and the MIC (Acinetobacter baumannii [9]) was 1 µg/mL. For the same molecule, the MIC (Acinetobacter baumannii [10]) was 1 µg/mL.
In the case of CCCCSSc1ccc(-c2ncc(C(=O)N[C@@H](CCN)C(=O)N(C)[C@@H]3C(=O)N[C@@H](C)C(=O)N[C@H](C(=O)NCC#N)Cc4ccc(OCCN)c(c4)-c4cc3ccc4OCCN)c(C)n2)cc1.O=C(O)C(F)(F)F.O=C(O)C(F)(F)F.O=C(O)C(F)(F)F.O=C(O)C(F)(F)F, the MIC (Escherichia coli [1]) is reported as 0.125 µg/mL, the MIC (Pseudomonas aeruginosa [2]) is reported as 2 µg/mL and the MIC (Klebsiella pneumoniae [3]) is reported as 0.25 µg/mL. The MIC (Klebsiella pneumoniae [4]) was 0.25 µg/mL, the MIC (Klebsiella pneumoniae [5]) was 0.125 µg/mL and the MIC (Escherichia coli [6]) was ≤ 0.03 µg/mL. The MIC (Escherichia coli [7]) was 0.06 µg/mL, the MIC (Pseudomonas aeruginosa [8]) was 4 µg/mL and the MIC (Acinetobacter baumannii [9]) was 0.25 µg/mL. It also gave an MIC (Acinetobacter baumannii [10]) of 0.5 µg/mL.
